Molecular target: T1, FepB (FepB-6His, apo-FepB) (Staphylococcus aureus, UniProt Q2G130)
T1 construct: gene SAOUHSC_00326; Tat signal peptide removed; six-histidine tag kept (pET22b NdeI/XhoI); expressed in E. coli; apo form monomeric after gel filtration (heme-loaded form dimeric)
Experiment: UV-visible absorbance titration (Soret band […] nm), one-site fit
Format: binding
Details: apo-FepB 2.2 µM, 50 mM Tris-HCl pH 8.0, 0.2 M NaCl, room temperature; stoichiometry 0.9; PPIX in DMSO; stoichiometry 0.7

T1 sequence (Q2G130 entry or part of it): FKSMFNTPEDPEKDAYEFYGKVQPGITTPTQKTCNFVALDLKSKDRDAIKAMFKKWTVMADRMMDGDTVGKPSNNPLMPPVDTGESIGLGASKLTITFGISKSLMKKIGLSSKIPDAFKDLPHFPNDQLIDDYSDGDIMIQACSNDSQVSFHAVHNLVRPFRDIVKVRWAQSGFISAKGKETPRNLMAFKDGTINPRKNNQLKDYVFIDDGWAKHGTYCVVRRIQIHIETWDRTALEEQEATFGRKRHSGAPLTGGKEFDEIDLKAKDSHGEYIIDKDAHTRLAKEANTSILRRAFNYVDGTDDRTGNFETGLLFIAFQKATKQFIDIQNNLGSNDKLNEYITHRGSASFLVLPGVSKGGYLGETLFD

C=CC1=C(C)c2cc3[nH]c(cc4nc(cc5[nH]c(cc1n2)c(C)c5CCC(=O)O)C(CCC(=O)O)=C4C)c(C)c3C=C [PPIX]
Kd: 21.1±5,2 nM

— PMC3577903, “Staphylococcus aureus FepA and FepB Proteins Drive Heme Iron Utilization in Escherichia coli” (PLoS ONE, 2013)
